“And” between values parts separate entries of the source, which are not always exact repeats. Equal values may be shown once. Toxic doses and inconclusive results are not listed.
System: B6C3F1 mice, ip Sarcoma M5076, median survival T/C
Experiment: NCI In Vivo Anticancer Drug Screen. Data for tumor model Sarcoma M5076 (intraperitoneal) in B6C3F1 mice
Conditions: endpoint: median survival time, higher = longer survival
How it was run: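 Antitumour effect is judged in tumour-bearing mice by comparing survival after compound dosing against vehicle-only animals, reported as T/C.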

[1] = dose: 12.5 mg/kg/injection, schedule: Q04DX004 (ip), vehicle: saline with Tween-80
[2] = dose: 50.0 mg/kg/injection, schedule: Q04DX004 (ip), vehicle: saline with Tween-80
[3] = dose: 100.0 mg/kg/injection, schedule: Q04DX004 (ip), vehicle: saline with Tween-80
[4] = dose: 200.0 mg/kg/injection, schedule: Q04DX004 (ip), vehicle: saline with Tween-80
[5] = dose: 400.0 mg/kg/injection, schedule: Q04DX004 (ip), vehicle: saline with Tween-80
[6] = dose: 800.0 mg/kg/injection, schedule: Q04DX004 (ip), vehicle: saline with Tween-80
[7] = dose: 50.0 mg/kg/injection, schedule: Q04DX004 (ip), vehicle: Klucel (hydroxypropylcellulose) (HPC)
[8] = dose: 100.0 mg/kg/injection, schedule: Q04DX004 (ip), vehicle: Klucel (hydroxypropylcellulose) (HPC)
[9] = dose: 200.0 mg/kg/injection, schedule: Q04DX004 (ip), vehicle: Klucel (hydroxypropylcellulose) (HPC)
[10] = dose: 400.0 mg/kg/injection, schedule: Q04DX004 (ip), vehicle: Klucel (hydroxypropylcellulose) (HPC)
[11] = dose: 25.0 mg/kg/injection, schedule: Q04DX004 (ip), vehicle: saline with Tween-80
[12] = dose: 50.0 mg/kg/injection, schedule: Q04DX004 (ip), vehicle: saline
[13] = dose: 100.0 mg/kg/injection, schedule: Q04DX004 (ip), vehicle: saline
[14] = dose: 200.0 mg/kg/injection, schedule: Q04DX004 (ip), vehicle: saline
[15] = dose: 400.0 mg/kg/injection, schedule: Q04DX004 (ip), vehicle: saline
[16] = dose: 12.5 mg/kg/injection, schedule: Q04DX004 (ip), vehicle: saline
[17] = dose: 25.0 mg/kg/injection, schedule: Q04DX004 (ip), vehicle: saline

In the case of O=c1ccn(C2CC3[O][Sn]([c]4ccccc4)([c]4ccccc4)[O]CC3O2)c(=O)[nH]1 (centres undefined), the T/C (dose: 25.0 mg/kg/injection, schedule: Q04DX004 (ip), vehicle: distilled water + Tween-80) is reported as 104 % of control, the T/C (dose: 50.0 mg/kg/injection, schedule: Q04DX004 (ip), vehicle: distilled water + Tween-80) is reported as 102 % of control and the T/C (dose: 100.0 mg/kg/injection, schedule: Q04DX004 (ip), vehicle: distilled water + Tween-80) is reported as 101 % of control. For the same compound, the T/C (dose: 200.0 mg/kg/injection, schedule: Q04DX004 (ip), vehicle: distilled water + Tween-80) was 103 % of control and the T/C (dose: 400.0 mg/kg/injection, schedule: Q04DX004 (ip), vehicle: distilled water + Tween-80) was 102 % of control.

In the case of COC(=O)c1ccc(N=NN(C)COC(C)=O)cc1, the T/C (dose: 30.0 mg/kg/injection, schedule: Q04DX004 (ip), vehicle: Klucel (hydroxypropylcellulose) (HPC)) is reported as 123 % of control, the T/C (dose: 60.0 mg/kg/injection, schedule: Q04DX004 (ip), vehicle: Klucel (hydroxypropylcellulose) (HPC)) is reported as 123 % of control and the T/C (dose: 103.7 mg/kg/injection, schedule: Q04DX004 (ip), vehicle: Klucel (hydroxypropylcellulose) (HPC)) is reported as 175 % of control. The T/C (dose: 172.8 mg/kg/injection, schedule: Q04DX004 (ip), vehicle: Klucel (hydroxypropylcellulose) (HPC)) was 188 % of control, the T/C (dose: 288.0 mg/kg/injection, schedule: Q04DX004 (ip), vehicle: Klucel (hydroxypropylcellulose) (HPC)) was 195 % of control and the T/C (dose: 480.0 mg/kg/injection, schedule: Q04DX004 (ip), vehicle: Klucel (hydroxypropylcellulose) (HPC)) was 167 % of control.

CCC(=O)[O][Bi]([c]1ccccc1)[c]1ccccc1 was tested, and the T/C (dose: 3.0 mg/kg/injection, schedule: Q04DX004 (ip), vehicle: Klucel (hydroxypropylcellulose) (HPC)) was 101 % of control, the T/C (dose: 6.0 mg/kg/injection, schedule: Q04DX004 (ip), vehicle: Klucel (hydroxypropylcellulose) (HPC)) was 98 % of control and the T/C (dose: 12.0 mg/kg/injection, schedule: Q04DX004 (ip), vehicle: Klucel (hydroxypropylcellulose) (HPC)) was 102 % of control. For the same compound, the T/C (dose: 24.0 mg/kg/injection, schedule: Q04DX004 (ip), vehicle: Klucel (hydroxypropylcellulose) (HPC)) was 89 % of control.

CS(=O)(=O)OCCCCOS(C)(=O)=O was tested, and the T/C (dose: 6.25 mg/kg/injection, schedule: Q04DX004 (ip), vehicle: saline with Tween-80) was 100 % of control and the T/C [1] was 104 % of control.

With Nc1ccccc1Sc1cc(Cl)nnc1Cl the T/C [2] was 97 % of control, the T/C [3] was 98 % of control and the T/C [4] was 102 % of control. The T/C [5] was 88 % of control.

In the case of Cc1ccc2c(c1)C1(SC(C)C(=O)N1c1ccc(Cl)cc1)C(=O)N2 (centres undefined), the T/C [2] is reported as 96 % of control, the T/C [3] is reported as 101 % of control and the T/C [4] is reported as 98 % of control. The T/C [5] was 93 % of control and the T/C [6] was 86 % of control.

O=C1CNC(=O)N1CN1CCOCC1 was tested, and the T/C [7] was 110 % of control, the T/C [8] was 106 % of control and the T/C [9] was 108 % of control. For the same compound, the T/C [10] was 115 % of control and the T/C (dose: 800.0 mg/kg/injection, schedule: Q04DX004 (ip), vehicle: Klucel (hydroxypropylcellulose) (HPC)) was 106 % of control.

COc1cc2c(c3c1c(=O)c1ccccc1n3C)C=CC(C)(C)O2 was tested, and the T/C [1] was 112 % of control, the T/C [11] was 121 % of control and the T/C (dose: 166.7 mg/kg/injection, schedule: Q04DX004 (ip), vehicle: saline with Tween-80) was 110 % of control.

Cc1[nH]c(=O)[nH]c(=O)c1C=O was tested, and the T/C [2] was 100 % of control, the T/C [3] was 101 % of control and the T/C [4] was 98 % of control. The T/C [5] was 96 % of control.

CC(/C=C/C1OC(=O)C=CC1C)=C\C(C)C/C=C/C(C)=C/C(C)C(=O)C(C)C(O)C(C)C/C(C)=C/C(=O)O (centres undefined) was tested, and the T/C (dose: 25.0 micrograms/kg/injection, schedule: Q04DX004 (ip), vehicle: saline + alcohol) was 118 % of control, the T/C (dose: 50.0 micrograms/kg/injection, schedule: Q04DX004 (ip), vehicle: saline + alcohol) was 150 % of control and the T/C (dose: 100.0 micrograms/kg/injection, schedule: Q04DX004 (ip), vehicle: saline + alcohol) was 123 % of control. For the same compound, the T/C (dose: 400.0 micrograms/kg/injection, schedule: Q04DX004 (ip), vehicle: saline + alcohol) was 177 % of control.

With CN(CN1C(=O)CCC1=O)CN1C(=O)CCC1=O the T/C [12] was 92 % of control, the T/C [13] was 100 % of control and the T/C [14] was 96 % of control. The T/C [15] was 116 % of control.

In the case of c1cc2n(n1)CCN2, the T/C (dose: 50.0 mg/kg/injection, schedule: Q04DX005 (ip), vehicle: saline) is reported as 86 % of control.

For COc1cc(C2=NCCc3cc4c(cc32)OCO4)cc(OC)c1OC, the T/C [16] was 106 % of control, the T/C [17] was 106 % of control and the T/C [12] was 106 % of control. For the same compound, the T/C [13] was 110 % of control.

CN(C)CCOc1cccc2c1C(=O)c1ccccc1C2=O was tested, and the T/C (dose: 50.0 mg/kg/injection, schedule: Q04DX004 (ip), vehicle: water) was 90 % of control and the T/C (dose: 100.0 mg/kg/injection, schedule: Q04DX004 (ip), vehicle: water) was 97 % of control.

With COc1cc2c(c(OC)c1OC)-c1ccc(OC)c(=O)cc1[C@@H](NC(C)=O)CC2 the T/C (dose: 0.38 mg/kg/injection, schedule: Q04DX004 (ip), vehicle: saline) was 106 % of control, the T/C (dose: 0.54 mg/kg/injection, schedule: Q04DX004 (ip), vehicle: saline) was 101 % of control and the T/C (dose: 0.75 mg/kg/injection, schedule: Q04DX004 (ip), vehicle: saline) was 112 % of control. For the same compound, the T/C (dose: 0.9 mg/kg/injection, schedule: Q04DX004 (ip), vehicle: saline) was 116 % of control, the T/C (dose: 2.5 mg/kg/injection, schedule: Q04DX004 (ip), vehicle: saline) was 123 % of control and the T/C (dose: 185.0 micrograms/kg/injection, schedule: Q04DX004 (ip), vehicle: saline) was 96 % of control. The T/C (dose: 375.0 micrograms/kg/injection, schedule: Q04DX004 (ip), vehicle: saline) was 95 % of control, the T/C (dose: 750.0 micrograms/kg/injection, schedule: Q04DX004 (ip), vehicle: saline) was 100 % of control and the T/C (dose: 1500.0 micrograms/kg/injection, schedule: Q04DX004 (ip), vehicle: saline) was 100 % of control. The T/C (dose: 3000.0 micrograms/kg/injection, schedule: Q04DX004 (ip), vehicle: saline) was 97 % of control.

O=C1NC2(CN3CCC2CC3)C(=O)N1CN(Cc1ccccc1)c1ccccc1 (centres undefined) was tested, and the T/C [2] was 97 % of control, the T/C [3] was 102 % of control and the T/C [4] was 93 % of control. The T/C [5] was 87 % of control and the T/C [6] was 90 % of control.

CCNC(=O)OCc1cnc(C)c(O)c1COC(=O)NCC was tested, and the T/C [12] was 97 % of control, the T/C [13] was 107 % of control and the T/C [14] was 108 % of control. For the same compound, the T/C [15] was 102 % of control.

In the case of CCC(NC(N)=O)C(CC)NC(N)=O (centres undefined), the T/C [1] is reported as 92 % of control and the T/C [11] is reported as 92 % of control.

With NC(=O)CCC(N)C(=O)O (centres undefined) the T/C (dose: 3.12 mg/kg/injection, schedule: Q04DX004 (ip), vehicle: saline) was 100 % of control, the T/C (dose: 6.25 mg/kg/injection, schedule: Q04DX004 (ip), vehicle: saline) was 104 % of control and 105 % of control and the T/C [16] was 97 % of control and 99 % of control. The T/C [17] was 98 % of control and 108 % of control, the T/C [12] was 105 % of control and 111 % of control and the T/C [13] was 103 % of control and 124 % of control.

In the case of CNc1nc(N(C)C)nc(N(C)C)n1, the T/C (dose: 25.0 mg/kg/injection, schedule: Q04DX004 (ip), vehicle: suspension in saline) is reported as 92 % of control and 100 % of control, the T/C (dose: 50.0 mg/kg/injection, schedule: Q04DX004 (ip), vehicle: suspension in saline) is reported as 102 % of control and 109 % of control and the T/C (dose: 100.0 mg/kg/injection, schedule: Q04DX004 (ip), vehicle: suspension in saline) is reported as 113 % of control and 114 % of control. The T/C (dose: 200.0 mg/kg/injection, schedule: Q04DX004 (ip), vehicle: suspension in saline) was 117 % of control and 120 % of control.

CC[C@@]1(O)C(=O)OCc2c1cc1n(c2=O)Cc2cc3cc(O)ccc3nc2-1 was tested, and the T/C (dose: 0.86 mg/kg/injection, schedule: Q04DX004 (ip), vehicle: suspension in saline) was 104 % of control, the T/C (dose: 1.44 mg/kg/injection, schedule: Q04DX004 (ip), vehicle: suspension in saline) was 109 % of control and the T/C (dose: 1.88 mg/kg/injection, schedule: Q04DX004 (ip), vehicle: suspension in saline) was 106 % of control. The T/C (dose: 2.4 mg/kg/injection, schedule: Q04DX004 (ip), vehicle: suspension in saline) was 115 % of control, the T/C (dose: 3.75 mg/kg/injection, schedule: Q04DX004 (ip), vehicle: suspension in saline) was 162 % of control and the T/C (dose: 6.67 mg/kg/injection, schedule: Q04DX004 (ip), vehicle: suspension in saline) was 116 % of control.

In the case of COc1cccc(C2C(C#N)C(=O)NC(=O)C2C#N)c1 (centres undefined), the T/C [7] is reported as 99 % of control, the T/C [8] is reported as 102 % of control and the T/C [9] is reported as 98 % of control. For the same compound, the T/C [10] was 95 % of control.

Reference: PubChem BioAssay AID292 (DTP/NCI, 2004)
